Experimental data as given in publication PMC4448987, “A neuroligin-1-derived peptide stimulates phosphorylation of the NMDA receptor NR1 subunit and rescues MK-801-induced decrease in long-term potentiation and memory impairment” (Pharmacology Research & Perspectives, 2015).

How the values were obtained:
[1] = system: adult male Wistar rats; experiment: Social recognition test; assay type: in vivo; conditions: rat
Method: Social memory in animals reflects the ability to recognize conspecifics as familiar or unfamiliar. The social recognition test was performed basically as described previously (Secher et al. [2006]), (see Data S1). […] Rats were handled 5 days prior to the experiment and habituated to the transparent test cages for 1 h before start of experiment. The tests included three trials (T1–3), separated by intertribal periods of 2 and 24 h, with the test rat being introduced to a 3-week-old juvenile conspecific (40–50 g; Charles River) for 4 min each time. Investigative behavior was recorded and used to calculate recognition ratios (RR) as previously described (Kogan et al. [2000]). Retention periods longer than 1 h are believed to result in no or only minimal retention of social memory (Popik and van Ree [1998]; Secher et al. [2006]). Terminally, rats were rapidly and humanely rendered unconscious by concussive stunning and euthanized by cervical dislocation.
Social memory in animals reflects the ability of individuals to recognize conspecifics as familiar or unfamiliar. The animals were handled for 5 days prior to the experiments to minimize stress, habituated to the test cage, and trained to interact with a juvenile rat. Two groups of adult rats were used: a control group and a neurolide-1-treated group. Neurolide-1 (10 mg/kg) or vehicle (saline, 1 ml/kg) was injected subcutaneously (s.c.) two times, 24 and 2 h before the experiment. […] In the first trial, a 3-week-old juvenile male rat was introduced to the experimental adult rat for 4 min, and the time spent investigating the juvenile (e.g., licking, sniffing, chewing, and close following) was scored. Two hours later, a second trial was performed by reintroducing the same juvenile to the test rat to for 4 min, and investigative behavior was recorded. From the two trials, a recognition ratio (RR) was calculated as T2 / (T1 + T2), in which T1 and T2 were the times spent investigating the juvenile during the first and second trials, respectively. […]

[2] = system: male Wistar rats; experiment: Spatial memory in the Morris water maze; assay type: in vivo; conditions: rat
Method: The Morris water-maze test (Morris [1984]) was performed as previously described (Kraev et al. [2011]) with slight modifications (see Data S1). Male Wistar rats (Charles River), weighing 150–200 g on the day of arrival were used. To investigate for potential effects on memory consolidation, neurolide-1 was injected immediately after the training sessions on day 1 and 2 (n = 12 in each group). To test for potential effects on memory acquisition neurolide-1 was injected 2 h before start of training on training day 1 and 2 (n = 12 in each group). Finally, to test for potential effects on MK-801-induced learning deficiencies neurolide-1 was injected 2 h before start of training on day 2 and 3 in animals, which had received an injection with MK-801 30 min earlier (n = 6–9 in each group). In a slightly modified version of the MK-801 experiments a group of animals received a neurolide-1 injection immediately after the training sessions on day 1, and then a neurolide-1 injection 2 h before start of training on day 2, preceded by an MK-801 injection 30 min earlier (n = 12 in each group). Terminally, rats were rapidly and humanely rendered unconscious by concussive stunning and euthanized by cervical dislocation.
The Morris water maze test (Morris, 1984) was conducted in a 160 cm wide circular black tank placed in a dimly lit room and filled with 21°C water up to 20 cm from the top. The tank was surrounded by visual orientation marks, and a 10 cm wide escape platform was placed 1.5 cm below the water level for it to be unseen. A video camera was placed above the tank and connected to a computerized tracking system (Ethovision 3.1, Noldus IT, Wageningen, Holland). The tank was divided into four equal-size quadrants that also served as starting positions. The latency to locate the platform, time spent swimming, and swimming speed were scored within the defined zones (i.e., total area, quadrants, and a platform circle that was 60 cm in diameter with the center in the original platform location). Prior to training, the rats were handled 2 min daily for 5 days to minimize stress during the experiments.
Reference memory training consisted of three consecutive trials daily for 3 days. Each trial began with placing the animal in the water facing the wall of the pool. The starting position differed for each trial but was identical for all animals. In each trial, the animal was allowed 90 s to locate the platform. […] After each trial, the rats were allowed 20 s of orientation time on the platform and then removed from the pool for 20 s before the next trial was initiated. After the last trial each day, the animals were dried and returned to their home cages.
To test for effects on long-term memory, the animals were tested in a probe trial 24 h after the last reference memory training. In the probe trial, the platform was removed, and the animals began from a position in a quadrant adjacent to the original platform quadrant. The rats were allowed to swim for 60 s, after which the trial was stopped.

[3] = system: NMDA receptor NR1 subunit (serine 897); experiment: NMDA receptor phosphorylation assay (immunoblot, anti-phospho-Ser897-NR1) in cultured cortical neurons; assay type: cell-based, Wistar rat; conditions: cultured rat cortical neurons, 0.1, 0.3, 1 and 2.7 μmol/L for 5 min, eight independent experiments
Method: Cortical neurons were obtained from Wistar rat embryos at embryonic day 19, of both sexes, basically as previously described (Maar et al. [1997]) (see Data S1). Briefly, animals were rendered unconscious by concussive stunning and euthanized by cervical dislocation. Hereafter, the embryonic brains were collected and cortical neurons were dissociated and seeded in 60-mm tissue culture dishes coated with 1 μg/mL of poly-D-lysine (Sigma-Aldrich, St. Louis, MO) and grown for 8 days before treatment. Then, the cultures were stimulated with either the NL1 ectodomain (0.2, 0.6, 1.8, and 5.4 nmol/L) or neurolide-1 (0.1, 0.3, 1, and 2.7 μmol/L) for 5 min. The cells were lysed, and proteins were resolved by sodium dodecyl sulfate-polyacrylamide gel electrophoresis followed by immunoblotting using rabbit anti-Ser897-NR1 antibody (1:500; Millipore, Billerica, MA), mouse anti-β-tubulin antibody (1:50,000; Sigma-Aldrich), and IRDye secondary antibodies (Odyssey, Lincoln, NE). The bands were visualized using the Odyssey CLX Infrared Imaging System (Odyssey). Four independent experiments with stimulation by NL1 ectodomain and eight independent experiments with stimulation by neurolide-1 were performed.

In the case of SEGNRWSNSTKGLFQRA [neurolide-1], the “long-term social memory, 24 h after the first trial” value ([1]; 10 mg/kg s.c. 24 and 1 h before first trial, n = 12) is reported as “did not exhibit an improvement in social memory”, the “short-term social memory (recognition ratio), intertrial interval 2 h” value ([1]; 10 mg/kg s.c. 24 and 1 h before first trial, same juvenile, n = 12, P < 0.001 vs control) is reported as “enhanced social memory” and the “recognition ratio with a new unfamiliar juvenile in the second trial” value ([1]; 10 mg/kg s.c. twice, control test, compared with vehicle group or theoretical value 0.5, n = 12) is reported as “did not lead to a decrease in the RR”. The “learning, velocity and memory retention in probe test (memory acquisition)” value ([2]; 10 mg/kg s.c. 2 h before training sessions on days 1 and 2, n = 12) was “No effect”, the “learning on day 2 or 3 and memory retention in probe test (memory consolidation)” value ([2]; 10 mg/kg s.c. immediately after last training session on days 1 and 2, probe test 24 h after last training, n = 12) was “No effect” and the “velocity in the water maze” value ([2]; MK-801 0.1 mg/kg s.c. with or without neurolide-1 10 mg/kg s.c. (long-term regimen), n = 12) was “Neither treatments affected velocity”. The “effect on MK-801-impaired learning and memory retention, short-term treatment” value ([2]; neurolide-1 10 mg/kg s.c. 30 min after MK-801 0.1 mg/kg and 2 h before first trial on days 2 and 3, n = 6-9) was “did not reduce the effect of MK-801”, the “effect on MK-801-impaired learning (escape latency)” value ([2]; neurolide-1 10 mg/kg s.c. after training on day 1 and on day 2, 30 min after MK-801 0.1 mg/kg and 2 h before first training session, n = 12) was “attenuated the effect of the NMDA receptor inhibitor on learning” and the “effect on MK-801-impaired memory in the probe test 24 h after last training session” value ([2]; neurolide-1 10 mg/kg s.c. after training on day 1 and on day 2, 30 min after MK-801 0.1 mg/kg, n = 12) was “completely abrogated the effect of MK-801”. For the same sequence, the “NR1 phosphorylation on serine 897” value [3] was “induced NR1 phosphorylation proportionally to the increase in peptide concentration”.
